This is an account of results in US7094759B2, “Oral modified SSP-5 antibacterial composition” (GC Corporation, priority 2003, dated 2006).

Common to all, as to test: Adhesion suppressing properties on saliva treatment sensor chip (BIAcore)
Common to all, as to conditions: peptide solution 1 mg/mL in PBS pH7.4
On the technique in general: SPR reads the build-up and loss of mass on a sensor chip optically.

The subject of one assay is S. sanguis (ATCC10558). It is filed as binding, Streptococcus sanguis. On the procedure:
(§1) S. sanguis (ATCC10556, ATCC10558), S. mutans (ATCC25175) were used as intraoral bacteria. All bacteria were cultured under an anaerobic conditions using Brain Heart Infusion broth (BHI; Difco Lavoratory, Detroit, Mich.) as a culture medium.
(§2) The specimen was stimulus saliva secreted by biting paraffine wax for 3 minutes by 3 subjects (A, B, C). The saliva was collected, incubated at 4° C. for 5 minutes, and centrifuged at 10000×g for 10 minutes at 4° C. Then, the supernatant was used the saliva specimen.
(§3) The adhesion suppressing properties of bacteria was confirmed by using a sensor chip as a substitute for a tooth. As the sensor chip, Pioneer Sensor Chip F1 (produced by BIAcore Company) was used. The sensor chip F1 was activated at flow speed of […] for 1 minute with 70 μL of 400 mM N-ethyl-N′-(3-diaethylaminoprophyl) carbodiimide and 100 mM N-hydroxy siccinimide solution. Then, the above saliva specimen was diluted 20 times, and bonded on the chip by passing 70 μL of sample over the activated chip. (Hereinafter, this chip was said to as a saliva treatment sensor chip)
(§4) The confirmation method of the adhesion suppressing properties by BIA core™ Biosensor system (produced by BIAcore Company) will be explained. First, each bacteria is passed over the saliva treatment sensor chip at 0.D.=1 (550 nm) and a flow speed of 20 μL/min. Then, the bonding state (Response Unit:RU) between the bacteria and saliva on the surface of the sensor chip was measured. The sensor chip was not carried out the peptide treatment.
(§5) Then, to the other saliva treatment sensor chip, which was different from the saliva treatment sensor chip adhered with bacteria, a modified SSP-5(390–402) peptide solution (1 mg/mL) dissolved with a phosphate buffer solution (PBS, pH7.4) was passed over the sensor chip at flow speed of 10 μL/min, and the surface of the saliva treatment sensor chip was treated with the peptide. Then, each bacteria was passed over the chip at 0.D.=1 (550 nm) and flow speed of 20 μL/min, and the bonding state (Response Unit:RU) between each bacteria and saliva on the sensor surface was measured. The final bacterium adhesion suppressing ratio by the peptide treatment was measured using the following formula 1. Adhesion suppressing ratio=100×{[Bonding state between bacteria and saliva (RU)]−[Bonding state between bacteria and saliva (after the peptide treatment) (RU)]}/[Bonding state between bacteria and saliva (RU)] [Formula 1]

The test system of the next assay is S. sanguis (ATCC10556). It counts as binding, Streptococcus sanguis. The procedure: as §1, §2, §3, §4, §5
The subject of another assay is S. mutans (ATCC25175). It counts as binding, Streptococcus mutans. On the procedure: as §1, §2, §3
The confirmation method of the adhesion suppressing properties by BIA core™ Biosensor system (produced by BIAcore Company) will be explained. […] Then, the bonding state (Response Unit:RU) between the bacteria and saliva on the surface of the sensor chip was measured. […]
as §5, with “Adhesion suppressing ratio=100×{[Bonding state between bacteria and saliva (RU)]−[Bonding state between bacteria and saliva (after the peptide treatment) (RU)]}/[Bonding state between bacteria and saliva (RU)] [Formula 1]” left out

“modified SSP-5(390–402): Modified fragment (390–402) of Streptococcus sanguis surface protein SSP-5; position 400 (residue 11 of SEQ ID NO: 1) is threonine”: the entries for the “Adhesion suppressing ratio S. sanguis (ATCC10558)” value in the assay on S. sanguis (ATCC10558) (saliva sample A), in the assay on S. sanguis (ATCC10558) (saliva sample B) and with S. sanguis (ATCC10558) (saliva sample C) were 59%, 63% and 61%, respectively. In addition, the results for the “Adhesion suppressing ratio S. sanguis (ATCC10556)” value in the assay with S. sanguis (ATCC10556) (saliva sample A), in the assay on S. sanguis (ATCC10556) (saliva sample B) and in the assay with S. sanguis (ATCC10556) (saliva sample C) were 61%, 57% and 65%, respectively. For the same substance, the “Adhesion suppressing ratio S. mutans (ATCC25175)” value with S. mutans (ATCC25175) (saliva sample A) was determined as 55%; in the assay with S. mutans (ATCC25175) (saliva sample B) it was 60%; with S. mutans (ATCC25175) (saliva sample C), 58%.
